Values after ≈ are worked out from the molar mass of the structure shown.
System: S. pneumoniae ATCC 49619
Assay: Minimal inhibitory concentration (MIC) by broth microdilution (CLSI M7-A7)
Format: cell-based, Streptococcus pneumoniae
Settings: Streptococcus pneumoniae, ATCC49619; cation-adjusted Mueller Hinton Broth supplemented with 3% (v/v) lysed horse blood; microdilution method
How it was run: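 Broth microdilution per CLSI M7-A7 in cation-adjusted Mueller-Hinton broth with 3% (v/v) lysed horse blood for S. pneumoniae. MIC in mg/l.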

SMILES | MIC [µg/mL]
CCNC(=O)Nc1cc2cccc(CNC(=O)OCCC#N)c2cn1.Cl [Example 32, [3-(3-ethyl-ureido)-isoquinolin-8-ylmethyl]-carbamic acid 2-cyano-ethyl ester hydrochloride] | 4
CCNC(=O)Nc1cc2c(-c3ccncc3)ccc(CNC(=O)OCCc3cnn[nH]3)c2cn1 [Example 152, [3-(3-ethyl-ureido)-5-pyridin-4-yl-isoquinolin-8-ylmethyl]-carbamic acid 2-(3H-[1,2,3]triazol-4-yl)-ethyl ester] | 1 (≈ 2.17 µM)
CCNC(=O)Nc1cc2c(-c3ccnc(N4CCCCC4)c3)ccc(CNC(=O)OC)c2cn1 [Example 174, [3-(3-ethyl-ureido)-5-(3,4,5,6-tetrahydro-2H-[1,2′]bipyridinyl-4′-yl)-isoquinolin-8-ylmethyl]-carbamic acid methyl ester] | 4 (≈ 8.65 µM)
CCNC(=O)Nc1cc2c(-c3ccncc3)ccc(CNC(=O)OCCO)c2cn1 [Example 107, [3-(3-ethyl-ureido)-5-pyridin-4-yl-isoquinolin-8-ylmethyl]-carbamic acid 2-hydroxy-ethyl ester] | 1 (≈ 2.44 µM)
CCNC(=O)Nc1cc2c(-c3ccncc3)ccc(CNC(=O)OCCC(N)=O)c2cn1 [Example 182, [3-(3-ethyl-ureido)-5-pyridin-4-yl-isoquinolin-8-ylmethyl]-carbamic acid 2-carbamoyl-ethyl ester] | 2 (≈ 4.58 µM)
C#CCOC(=O)NCc1ccc(-c2ccncc2)c2cc(NC(=O)NCC)ncc12 [Example 41, [3-(3-ethyl-ureido)-5-pyridin-4-yl-isoquinolin-8-ylmethyl]-carbamic acid prop-2-ynyl ester] | 0.25 (≈ 0.62 µM)
C#CCOC(=O)NCc1ccc(-c2ccc(CO)nc2)c2cc(NC(=O)NCC)ncc12.Cl [Example 142, [3-(3-ethyl-ureido)-5-(6-hydroxymethyl-pyridin-3-yl)-isoquinolin-8-ylmethyl]-carbamic acid prop-2-ynyl ester hydrochloride] | 1

Source: patent publication US8889676B2, “3-ureidoisoquinolin-8-yl derivatives” (Actelion Pharmaceuticals Ltd., priority 2011, dated 2014)
